Assay results from patent publication US20250327028A1, “ENGINEERED PLATELETS AS TARGETED PROTEIN DEGRADERS” (Wisconsin Alumni Research Foundation, priority 2024, published 2025).

Columns and labels:
4T1-Luc tumors [1] = assay: Treatment efficacy in post-surgery BALB/c mice with orthotopic 4T1-Luc breast cancer; format: in vivo; conditions: 2×10^8 platelets i.v. or free HAC 5 mg/kg i.p., every third day for 4 times
Excerpt: Evaluation of treatment efficacy and biosafety in post-surgical 4T1 tumor-bearing mice: Post-surgery BALB/c mice with orthotopic 4T1-Luc-breast cancer were used to evaluate the tumor recurrence, metastasis, and biosafety profiles after iDePLT or eDePLT treatments. The treatment efficacy of iDePLT was also studied in the post-surgery NSG mice with orthotopic patient-derived xenografts (PDX) breast cancer.
Establishment of post-surgery models with BALB/c mice: 1×10^6 4T1-Luc cells were suspended in a PBS containing 50% Matrigel® (Corning®/354234). Female 8-week-old BALB/c mice were anesthetized and injected with 50 μL of the cell suspensions into the fourth mammary gland fat pads. After the tumor volumes reached about 100-200 mm^3, the tumor-bearing mice were anesthetized and placed under the microscope, followed by surgical resection to totally remove the visible tumor tissues. Following wound closure, the post-surgery mice were randomly assigned to different treatment groups.
Evaluation of treatment efficacy and biosafety in post-surgery BALB/c mice: As for the treatments with platelets, the platelets were freshly isolated from the healthy female BALB/c mice and suspended in PBS for intravenous (i.v.) injection after the necessary engineering. The free iHAC and eHAC were intraperitoneally (i.p.) injected after dispersing in the formulation of 10% DMSO, 40% polyethylene glycol 300 (PEG300), 5% Tween TM-80, and 45% saline. From the same day after surgery, the mice were anesthetized and i.p. injected with D-luciferin potassium salt (150 mg/kg) in 100 μL in PBS. The bioluminescence of post-surgery mice in each group was detected by Perkin Elmer IVIS every five days from the day of surgery, and intensity was analyzed by Living Image Software v.4.3.1. […] During the treatment course, the body weight of each post-surgery mouse was monitored daily. […]

PD-L1 [2] = molecular target: T1, PD-L1 (Mus musculus, UniProt Q9EP73); assay: Immunoblot analysis of PD-L1 degradation in 4T1 cells after free HAC treatment; format: cell-based, murine
T1 construct: endogenous in cells; host or cells: 4T1
Excerpt: (§1) Immunoblot analysis: Immunoblot analysis was used to evaluate the expression of BRD4, HSP90, HSP90a, and PD-L1 in 4T1, WT MDA-MB-231, HSP90α-KO MDA-MB-231 or PEA-10 cells after various treatments and also served as the detection method for IP or co-IP experiments. The procedures for preparing IP or co-IP samples were indicated in the relevant experimental parts.
Sample preparation for various cancer cells after free HAC treatment: Various cells, including 4T1, WT MDA-MB-231, HSP90α-KO MDA-MB-231, or PEA-10 cells, were seeded in 6-well culture plates with a density of 5×10^4 cells in each well and cultured for 24 h. Then, if HAI pretreatment was performed, the cells were incubated in the HAI-containing blank medium at different concentrations for 2 h and washed with PBS twice before the following treatments. The medium in the corresponding wells was replaced with 1 mL of blank medium containing the DMSO vehicle, HACs, or the combinations of various free ligands at the predetermined concentrations. After incubation for the indicated time points, cells were washed with PBS and lysed on ice with the relevant lysis buffer containing PMSF (1 mM) and the phosphatase inhibitor cocktail for 30 min. As for the conditioned medium (CM), the culturing complete medium of the corresponding cancer cells in each well was collected after 24-h incubation and subjected to centrifugation at 2000 rpm for 5 min to obtain the supernatant. The filtrate of the supernatants was collected following filtration over a 0.45 μm filter, serving as the CM. Regarding the cell samples for BRD4 detection, the lysis buffer containing HEPES-KOH (pH=7.5, 10 mM), NaCl (500 mM), EDTA (5 mM), NP-40 (1%), and SDS (0.1%) was used with the indicated PMSF and phosphatase inhibitor cocktail. As for PD-L1 detection, RIPA buffer (Thermo Fisher Scientific/J63306.AP) was used with the indicated PMSF and phosphatase inhibitor cocktail.
General procedures for immunoblot analysis: After a 30-min lysis, the lysates were centrifuged at 10,000 g for 10 minutes at 4° C., and the corresponding supernatants were collected, followed by quantification of the total proteins in the supernatant through the BCA assay. Afterward, the proteins in the supernatant were mixed with the loading buffer and heated at 95° C. for 15 min. Equal amounts of proteins from different samples ([…]) were loaded into the Bis-Tris gel formulated with Bis-Tis buffer, 30% acrylamide/Bis, 10% ammonium persulfate (APS) solution, and TEMED. […] Finally, the bands were treated with electrochemiluminescence (ECL) western blot substrate, detected by the iBright™ imaging system and quantified with ImageJ software. […]

PD-L1 [3] = molecular target: T2, PD-L1 (Homo sapiens, UniProt Q9NZQ7); assay: PD-L1 degradation in HSP90α-KO MDA-MB-231 cells; format: cell-based
T2 construct: endogenous in cells; host or cells: HSP90α-KO MDA-MB-231
Excerpt: as §1
(§2) Sample preparation for various cancer cells after free HAC treatment: Various cells, including 4T1, WT MDA-MB-231, HSP90α-KO MDA-MB-231, or PEA-10 cells, were seeded in 6-well culture plates with a density of 5×10^4 cells in each well and cultured for 24 h. Then, if HAI pretreatment was performed, the cells were incubated in the HAI-containing blank medium at different concentrations for 2 h and washed with PBS twice before the following treatments. […]
(§3) General procedures for immunoblot analysis: After a 30-min lysis, the lysates were centrifuged at 10,000 g for 10 minutes at 4° C., and the corresponding supernatants were collected, followed by quantification of the total proteins in the supernatant through the BCA assay. […] Finally, the bands were treated with electrochemiluminescence (ECL) western blot substrate, detected by the iBright™ imaging system and quantified with ImageJ software. […]

PD-L1 [4] = molecular target: T1, PD-L1; assay: Immunoblot analysis of PD-L1 expression in LRP-1-deficient PEA-10 cells; format: cell-based, murine; conditions: PEA-10 (LRP-1-deficient), various concentrations, 8 h, CM
Excerpt: as §1, §2, §3

PD-L1 [5] = molecular target: T2, PD-L1; assay: PD-L1 distribution in WT MDA-MB-231 cells (fluorescence observation); format: cell-based; conditions: 2 h, compared to PU-H71 plus BMS-1166
Procedure: PD-L1 distribution in WT MDA-MB-231 cells: 5×10^4 WT MDA-MB-231 cells were seeded in a confocal dish and cultured for 24 h at 37° C. Then, the cells were treated with eHAC or the combination of PU-H71 plus BMS-1166 at 0.5 μM for 2 h. Subsequently, the cells were washed with PBS twice and fixed with 4% PFA at room temperature for 20 min. The following procedures were the same as the above colocalization observation except for replacing the anti-LAMP1 antibody with rabbit anti-PD-L1 antibody (Invitrogen/PA5-20343).

4T1-Luc tumors [6] = assay: Flow cytometry and ELISA of infiltrated effector T cells and cytokines within tumor tissues of post-surgery mice; format: in vivo, BALB/c mice; conditions: flow cytometry, two weeks after last treatment
Procedure: Flow cytometry analysis and ELISA assay were adopted to study the infiltrated effector T cells and immune-associated cytokines within the tumor tissues. The same post-surgery mouse models were established and randomly divided into 4 groups (n=5), which were i.v. injected with PBS, nPLT (2×10^8 platelets), eDePLT (2×10^8 platelets), and free eHAC (5 mg/kg) every three days for four times starting from day 1 post-surgery. After 2 weeks of the last treatment, the tumor tissues were isolated, weighed, and cut into small pieces, which were then soaked in 2 mL blank medium containing collagenase (MilliporeSigma/C5138) and incubated at 37° C. for 1 h. The cell suspensions were centrifugated at 1200 rpm for 3 min, and 200 μL of the corresponding supernatants were collected and subjected to ELISA analysis for IFN-γ and TNF-α. The single cell suspensions were collected through filtration of the suspension over 40 µm nylon cell strainer (Falcon®/352340). For the staining, 1×10^6 cells for each sample were collected and incubated with 100 μL of PBS containing PE anti-mouse CD3 antibody and APC anti-mouse CD8a antibody in the dark for 30 min at 4° C. Then, the samples were centrifuged at 2,000 rpm for 5 min at room temperature. The pellets were resuspended in PBS and subjected to the flow cytometry analysis.

T1 sequence (Q9EP73 19-290): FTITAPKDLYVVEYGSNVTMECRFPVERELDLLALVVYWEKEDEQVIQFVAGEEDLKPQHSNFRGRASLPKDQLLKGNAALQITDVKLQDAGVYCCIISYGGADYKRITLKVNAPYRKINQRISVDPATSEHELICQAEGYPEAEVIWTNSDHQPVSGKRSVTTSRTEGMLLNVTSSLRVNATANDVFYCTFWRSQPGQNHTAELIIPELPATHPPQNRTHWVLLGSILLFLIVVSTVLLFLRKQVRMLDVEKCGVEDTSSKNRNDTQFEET
T2 sequence (Q9NZQ7 19-290): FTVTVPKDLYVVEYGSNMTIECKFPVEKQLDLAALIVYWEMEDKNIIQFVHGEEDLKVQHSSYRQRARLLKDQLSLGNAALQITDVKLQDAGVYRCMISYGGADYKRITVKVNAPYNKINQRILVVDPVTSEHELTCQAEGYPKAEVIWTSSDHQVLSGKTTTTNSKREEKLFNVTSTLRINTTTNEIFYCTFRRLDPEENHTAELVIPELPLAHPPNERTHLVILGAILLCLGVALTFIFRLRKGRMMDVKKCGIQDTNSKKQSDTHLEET

Cc1c(COc2cc(OCc3cccc(C#N)c3)c(CN3C[C@H](O)C[C@@H]3C(=O)NCCOCc3cn(CCCC(=O)N(CC#N)S(=O)(=O)c4ccc(C(=O)NCCCn5c(Sc6cc7c(cc6I)OCO7)nc6c(N)ncnc65)cc4)nn3)cc2Cl)cccc1-c1ccc2c(c1)OCCO2 [eHAC, (2R,4R)—N-(2-((1-(4-((4-((3-(6-amino-8-((6-iodobenzo[d][1,3]dioxol-5-yl)thio)-9H-purin-9-yl)propyl)carbamoyl)-N-(cyanomethyl)phenyl)sulfonamido)-4-oxobutyl)-1H-1,2,3-triazol-4-yl)methoxy)ethyl)-1-(5-chloro-2-((3-cyanobenzyl)oxy)-4-((3-(2,3-dihydrobenzo[b][1,4]dioxin-6-yl)-2-methylbenzyl)oxy)benzyl)-4-hydroxypyrrolidine-2-carboxamide]
tumor recurrence at the surgical site (bioluminescence) (4T1-Luc tumors [1]): same severe relapse
PD-L1 expression in presence of lysosome degradation inhibitor leupeptin (PD-L1 [2]; 4T1 cells, 5 μM, 8 h): rescue effect on PD-L1 expression
PD-L1 expression, eHAC dispersed in blank medium (BM) (PD-L1 [2]; 4T1 cells, blank medium): just slightly reduced the PD-L1 expression within 12 h
PD-L1 levels, eHAC suspended in conditioned medium (CM) (PD-L1 [2]; 4T1 cells, conditioned medium, same time points): could efficiently downregulate PD-L1 levels
time and concentration dependence of PD-L1 reduction (PD-L1 [2]; conditioned medium): in a time- and concentration-dependent manner
PD-L1 degradation potency (PD-L1 [3]): considerably compromised
PD-L1 degradation (PD-L1 [4]): failed to induce obvious PD-L1 degradation
PD-L1 distribution (PD-L1 [5]): rapidly aggregated into punctate structures and moved towards cytosol
infiltration / ratio of CD3+CD8+ T cells in tumor tissues (4T1-Luc tumors [6]): slightly elevated the ratio of CD3^+CD8^+ T cells
